The text below walks through data of US12628829B2, “Compositions comprising recombianant Bacillus cells and an insecticide” (BASF CORPORATION, priority 2014, dated 2026).

For this assay, the system named is Maize. As to the kind of experiment: Plant growth promotion, maize whole plant biomass after soil drench. The format is in vivo. Here is the method: For instance, the formula and analysis can be applied to an evaluation of plant growth promotion. Such an assay is evaluated several days after the applications to plants. 100% means plant weight which corresponds to that of the untreated control plant. Efficacy means in this case the additional % of plant weight in comparison to that of the untreated control.
Experiments were conducted to analyze efficacy of a combination of flupyradifurone and a fermentation product of recombinant Bacillus thuringiensis cells expressing phospholipase C (“BEPC”). Maize seeds were grown in sterile mixture of synthetic media and sand in small three-inch square pots on light racks in a plant growth room at 25-28° C. and 50% humidity for about 14 days. Two seeds were planted in each pot. At planting, the growing media in each pot was drenched with the treatments described below. After 14 days, plants were measured for whole plant biomass. In the tables below, UTC refers to untreated control. “Calculated” refers to the expected effect calculated using the above-described Colby equation and “Efficacy” refers to the actual effect observed.
The SIVANTO® product, which contains flupyradifurone as its active ingredient (17.09% flupyradifurone), was diluted in 50 mL water and the diluted solution was used to drench the growing media. The application rate shown below refers to the amount of active ingredient (i.e., flupyradifurone) applied to the growing media.
A recombinant Bacillus cereus family member (Bacillus thuringiensis BT013A) expressing phospholipase C on its exosporium (BEPC) was generated as follows. […]
To obtain whole broth cultures of BEPC, 15 ml conicals containing brain heart infusion media (BHI) were inoculated with BEPC and grown for 7-8 hours at around 30° C. at a shaker setting of 300 rpm. […] After approximately 2 days of incubation, when sporulation was at least 95% completed, the culture broth was harvested and colony forming units calculated. […]

Consider `O=C1C=C(N(Cc2ccc(Cl)nc2)CC(F)F)CO1` [Flupyradifurone, flupyradifurone], for which the Efficacy % (actual effect observed: additional % of plant weight versus UTC, 14 days) is reported as 3%. Moreover, for the setting “growing media drenched at planting, measured after 14 days, flupyradifurone 1.36 mg/pot, BEPC 7 × 10^8 CFU/pot”, the “Whole Plant Biomass” value is given as 3.50 g. The Found % (plant weight relative to UTC = 100, drench at planting, 14 days) turned out to be 103%.
